{
  "source": "paper PMC8260592",
  "about": "(Scientific Reports, 2021)",
  "key": {"MAO-B [1]": {"molecular_target": "T1, MAO-B (Homo sapiens, UniProt P27338)", "T1 construct": "purchased Sigma-Aldrich", "T1 sequence (P27338 1-520)": "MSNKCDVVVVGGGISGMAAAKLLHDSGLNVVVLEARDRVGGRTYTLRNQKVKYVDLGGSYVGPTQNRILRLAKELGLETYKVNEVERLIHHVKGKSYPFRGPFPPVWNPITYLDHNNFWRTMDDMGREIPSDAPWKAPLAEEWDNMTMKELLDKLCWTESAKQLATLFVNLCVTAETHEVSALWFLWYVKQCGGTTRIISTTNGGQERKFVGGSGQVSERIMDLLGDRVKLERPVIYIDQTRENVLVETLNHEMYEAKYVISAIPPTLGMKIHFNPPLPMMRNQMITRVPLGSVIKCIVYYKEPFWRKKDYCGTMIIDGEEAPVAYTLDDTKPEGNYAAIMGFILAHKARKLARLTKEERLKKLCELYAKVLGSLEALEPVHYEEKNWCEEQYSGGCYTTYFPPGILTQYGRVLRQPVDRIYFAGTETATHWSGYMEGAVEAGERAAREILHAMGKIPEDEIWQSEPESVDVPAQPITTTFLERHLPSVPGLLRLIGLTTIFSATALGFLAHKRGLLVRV", "assay": "Reversibility of MAO-B inhibition by dialysis", "assay_type": "biochemical", "procedure": "(§1) After preincubating three compounds or reference inhibitors with enzymes for 15 min, residual activities of undialyzed (AU) and dialyzed (AD) samples were expressed as percentages of those of non-inhibitor treated controls. Reversibilities were assessed using AU and AD values and compared with those of reference compounds.\n(§2) After preincubating the compounds with enzymes for 15 min, the mixtures were dialyzed for 6 h with two buffer changes. Results are the averages of duplicate or triplicate experiments."}, "AChE [2]": {"test_system": "AChE", "settings": "ref 43; cited from earlier work"}, "AChE [3]": {"molecular_target": "T2, AChE (Electrophorus electricus, UniProt O42275)", "T2 sequence (O42275 24-633)": "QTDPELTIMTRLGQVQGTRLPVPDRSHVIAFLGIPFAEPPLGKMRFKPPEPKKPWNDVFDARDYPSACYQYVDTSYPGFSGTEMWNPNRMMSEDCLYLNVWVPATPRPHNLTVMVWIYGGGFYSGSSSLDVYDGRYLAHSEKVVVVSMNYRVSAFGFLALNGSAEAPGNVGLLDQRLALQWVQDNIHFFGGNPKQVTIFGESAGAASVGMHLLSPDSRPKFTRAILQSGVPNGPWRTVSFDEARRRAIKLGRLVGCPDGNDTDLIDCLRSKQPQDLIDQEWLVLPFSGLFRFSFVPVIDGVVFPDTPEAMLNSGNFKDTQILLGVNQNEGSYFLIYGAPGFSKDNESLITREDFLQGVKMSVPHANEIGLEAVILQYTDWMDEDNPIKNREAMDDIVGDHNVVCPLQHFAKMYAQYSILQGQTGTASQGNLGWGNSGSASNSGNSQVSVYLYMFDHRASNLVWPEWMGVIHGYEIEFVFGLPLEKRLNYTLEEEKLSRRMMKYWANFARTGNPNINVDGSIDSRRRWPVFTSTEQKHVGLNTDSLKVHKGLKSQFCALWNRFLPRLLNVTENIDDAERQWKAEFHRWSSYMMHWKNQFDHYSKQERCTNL", "assay": "Kinetics of AChE inhibition (Lineweaver-Burk and secondary plots)", "assay_type": "biochemical", "procedure": "(§3) Inhibitory patterns and Ki values were determined using Lineweaver–Burk (LB) plots and secondary plots of LB slopes.\nSubstrate concentrations ranged from 0.05 to 1.0 mM. […] Initial reaction rates are expressed as increases in absorbance per min."}, "MAO-B [4]": {"molecular_target": "T1, MAO-B", "assay": "biochemical", "procedure": "(§4) AChE and BChE inhibitory activities were measured after preincubating enzymes with inhibitors for 15 min before adding substrates (ATCI and BTCI, respectively) and DTNB. AChE activities were assayed as previously described, with slight modification[21],[22]. […] MAO-A and MAO-B activities were determined using a continuous spectrophotometric method, as described previously[23],[24]. […] Reaction rates are expressed as changes in absorbance per min.\nas §3"}, "Recombinant human MAO-A": {"molecular_target": "T3, Recombinant human MAO-A (Homo sapiens, UniProt P21397)", "T3 construct": "purchased Sigma-Aldrich", "T3 sequence (P21397 1-527)": "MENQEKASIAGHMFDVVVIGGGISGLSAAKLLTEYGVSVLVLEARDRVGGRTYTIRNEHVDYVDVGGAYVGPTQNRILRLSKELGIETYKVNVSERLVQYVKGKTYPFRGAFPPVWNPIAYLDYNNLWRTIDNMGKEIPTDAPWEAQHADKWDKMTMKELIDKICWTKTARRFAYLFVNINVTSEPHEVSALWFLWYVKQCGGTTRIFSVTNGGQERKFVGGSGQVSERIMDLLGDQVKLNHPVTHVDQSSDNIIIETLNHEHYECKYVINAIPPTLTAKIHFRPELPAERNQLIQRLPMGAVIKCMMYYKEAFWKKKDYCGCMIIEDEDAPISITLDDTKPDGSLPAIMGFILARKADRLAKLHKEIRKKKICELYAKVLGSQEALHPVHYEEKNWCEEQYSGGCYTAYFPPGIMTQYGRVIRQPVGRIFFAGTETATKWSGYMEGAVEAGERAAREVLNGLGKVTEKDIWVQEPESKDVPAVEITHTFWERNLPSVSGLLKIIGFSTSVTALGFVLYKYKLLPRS", "assay": "biochemical", "procedure": "as §4, §3"}, "MAO-B [5]": {"test_system": "MAO-B", "settings": "rat brain mitochondrial fractions; cited from earlier work"}, "MAO-B [6]": {"molecular_target": "T1, MAO-B", "assay": "Kinetics of MAO-B inhibition (Lineweaver-Burk and secondary plots)", "assay_type": "biochemical", "procedure": "as §3"}, "[7]": {"test_system": "Madin-Darby canine kidney (MDCK) cells", "assay": "Cytotoxicity test, CCK-8 assay", "settings": "50 µM, 24 h, CCK-8", "procedure": "(§5) Madin-Darby canine kidney (MDCK) cells and human acute promyelocytic leukemia (HL-60) cells were obtained from the Korean Cell Line Bank (Seoul, Korea). […] Cultures were maintained at 37 °C under 5% CO2, and media were changed every two days.\n(§6) Cell viabilities were determined using the CCK-8 assay. Briefly, MDCK cells or HL-60 cells were resuspended at 1 × 10^5 or 3 × 10^5 cells/mL and suspensions (100 µL) were added to wells of a 96-well plate and incubated in 5% CO2 atmosphere at 37 °C for 24 h. After incubation, 100 µL of each medium was treated with compounds at 1, 3, 10, 30, or 50 µM and incubated in 5% CO2 at 37 °C for 24 h. CCK-8 (10 µL/well) was then added to 100 µL aliquots from each cell and incubated 2–4 h. Absorbances were measured at 450 nm using a microplate reader (Versamax, Molecular Devices, San Jose, CA, USA).\n(§7) Both cell lines were treated with each compound (at 1, 3, 10, 30, or 50 µM) for 24 h. Culture supernatants were then removed and CCK-8 was added. […] Data are expressed as the means ± SDs of triplicate experiments."}, "[8]": {"test_system": "human acute promyelocytic leukemia (HL-60) cells", "assay": "Cytotoxicity test, CCK-8 assay", "settings": "50 µM, 24 h, CCK-8", "procedure": "as §5, §6, §7"}, "[9]": {"molecular_target": "AChE (Type VI-S from Electrophorus electricus) (Electrophorus electricus, UniProt O42275)", "sequence (O42275 24-633)": "as the sequence (O42275 24-633) above", "assay": "biochemical", "procedure": "as §4, with “min. […]” for “min.”"}, "BChE (equine serum)": {"molecular_target": "T4, BChE (equine serum) (Equus caballus, UniProt P81908)", "T4 construct": "BChE (equine serum); purchased Sigma-Aldrich; host or cells: equine serum", "T4 sequence (P81908 whole entry)": "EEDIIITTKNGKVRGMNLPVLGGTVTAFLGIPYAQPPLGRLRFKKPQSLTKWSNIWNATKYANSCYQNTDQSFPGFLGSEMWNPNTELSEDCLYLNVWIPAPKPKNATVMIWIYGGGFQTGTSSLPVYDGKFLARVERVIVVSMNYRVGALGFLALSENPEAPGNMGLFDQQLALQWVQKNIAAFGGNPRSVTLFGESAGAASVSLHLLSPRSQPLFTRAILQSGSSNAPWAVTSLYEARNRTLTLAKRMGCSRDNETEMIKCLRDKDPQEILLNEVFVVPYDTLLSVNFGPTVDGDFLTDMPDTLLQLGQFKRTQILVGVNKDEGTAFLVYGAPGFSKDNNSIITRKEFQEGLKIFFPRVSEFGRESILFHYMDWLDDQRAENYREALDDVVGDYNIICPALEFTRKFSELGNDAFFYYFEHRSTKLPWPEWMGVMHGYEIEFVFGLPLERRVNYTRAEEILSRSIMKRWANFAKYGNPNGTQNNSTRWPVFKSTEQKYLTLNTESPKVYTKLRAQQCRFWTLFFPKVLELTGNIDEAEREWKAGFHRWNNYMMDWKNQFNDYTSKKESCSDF", "assay": "biochemical", "procedure": "as §4, with “min. […]” for “min.”"}, "BACE-1": {"molecular_target": "T5, BACE-1 (Homo sapiens, UniProt P56817)", "T5 construct": "purchased Sigma-Aldrich", "T5 sequence (P56817 46-457)": "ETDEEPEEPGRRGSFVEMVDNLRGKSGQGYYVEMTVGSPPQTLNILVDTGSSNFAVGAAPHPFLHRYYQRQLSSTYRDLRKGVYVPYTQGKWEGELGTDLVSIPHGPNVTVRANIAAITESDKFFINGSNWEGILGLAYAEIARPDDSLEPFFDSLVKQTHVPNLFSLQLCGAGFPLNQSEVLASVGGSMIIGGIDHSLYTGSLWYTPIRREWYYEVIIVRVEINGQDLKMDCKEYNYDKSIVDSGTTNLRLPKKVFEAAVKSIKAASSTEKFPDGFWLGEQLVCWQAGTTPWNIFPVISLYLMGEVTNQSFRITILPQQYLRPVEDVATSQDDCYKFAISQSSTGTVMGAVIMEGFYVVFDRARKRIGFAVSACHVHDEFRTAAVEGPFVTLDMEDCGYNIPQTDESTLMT", "assay": "BACE-1 activity detection kit (fluorescence)", "assay_type": "biochemical", "settings": "read-out: Residual activity at 10 µM (%) BACE-1"}, "AChE [10]": {"molecular_target": "T2, AChE", "assay": "Reversibility of AChE inhibition by dialysis", "assay_type": "biochemical", "procedure": "as §1, §2"}},
  "note": "Entries after “also recorded” stand apart in the source; their conditions may differ.",
  "data": [
    {"smiles": "O=c1oc2c(O)c(O)cc3c(=O)oc4c(O)c(O)cc1c4c23", "note": "[Compound 5, ellagic acid]", "values": [
      {"measurement": "Reversibility of MAO-B inhibition", "setting": "MAO-B [1]", "value": "reversible inhibitors"},
      {"measurement": "IC50", "setting": "AChE [2]", "value": 133, "unit": "µM"},
      {"measurement": "Ki", "setting": "AChE [3]", "value": "9.43 ± 2.51", "unit": "µM"},
      {"measurement": "Mode of AChE inhibition", "setting": "AChE [3]; LB plots", "value": "competitively; also recorded: competitive but partly mixed; also recorded: competitive but partially mixed"},
      {"measurement": "IC50", "setting": "MAO-B [4]", "value": "9.21 ± 0.16", "unit": "µM"},
      {"measurement": "inhibition at 10 µM", "setting": "MAO-B [4]; 10 µM", "value": "> 50", "unit": "%"},
      {"measurement": "remaining activity at 10 µM", "setting": "MAO-B [4]; read-out: Residual activity at 10 µM (%) MAO-B", "value": "45.4 ± 4.1", "unit": "%"},
      {"measurement": "IC50", "setting": "Recombinant human MAO-A", "value": "> 40", "unit": "µM"},
      {"measurement": "remaining activity at 10 µM", "setting": "Recombinant human MAO-A; read-out: Residual activity at 10 µM (%) MAO-A", "value": "99.5 ± 0.7", "unit": "%"},
      {"measurement": "IC50", "setting": "MAO-B [5]", "value": 0.412, "unit": "µM"},
      {"measurement": "Ki", "setting": "MAO-B [6]", "value": "7.51 ± 1.86", "unit": "µM"},
      {"measurement": "Mode of MAO-B inhibition", "setting": "MAO-B [6]; LB plots", "value": "competitive"},
      {"measurement": "MDCK cell viability", "setting": "[7]", "value": "slightly or non-toxic; also recorded: negligible effects; also recorded: non-toxic or slightly toxic"},
      {"measurement": "HL-60 cell viability", "setting": "[8]", "value": "negligible effects; also recorded: non-toxic or slightly toxic"},
      {"measurement": "IC50", "setting": "[9]", "value": "41.7 ± 2.4", "unit": "µM"},
      {"measurement": "SI", "setting": "[9]; IC50 for BChE divided by IC50 for AChE", "value": "> 1.0"},
      {"measurement": "remaining activity at 10 µM", "setting": "[9]; read-out: Residual activity at 10 µM (%) AChE", "value": "81.5 ± 4.2", "unit": "%"},
      {"measurement": "IC50", "setting": "BChE (equine serum)", "value": "> 40", "unit": "µM"},
      {"measurement": "remaining activity at 10 µM", "setting": "BChE (equine serum); read-out: Residual activity at 10 µM (%) BChE", "value": "96.9 ± 5.8", "unit": "%"},
      {"measurement": "remaining activity at 10 µM", "setting": "BACE-1", "value": "59.1 ± 0.3", "unit": "%"},
      {"measurement": "Reversibility of AChE inhibition", "setting": "AChE [10]", "value": "reversibly; also recorded: reversible inhibitors"}
    ]}
  ]
}
